Measurements from US4331670A (priority 1979, dated 1982).

Columns and labels:
Pyricularia orzae = test: whole plant or invertebrate; assay type: in vivo, Pyricularia orzae (rice plant, Chukyo Asahi); settings: in Oryza sativa, 120 h, read-out: Protective value
Rhizoctonia solani = test: whole plant or invertebrate; assay type: in vivo, Rhizoctonia solani (rice plant, Chukyo Asahi); settings: in Oryza sativa, 120 h, read-out: Preventive value
Botrytis cinerea = test: Test 9: protective value on cucumber inoculated with Botrytis cinerea; assay type: in vivo, Botrytis cinerea (cucumber plant, Suyo); settings: 72 h, 250 ppm, 10 ml sprayed, lesion length three days after inoculation
Method: In each unglazed pot having a diameter of 9 cm, cucumber plant (Suyo) was cultured. At one leaf stage, 10 ml. of each solution of each active ingredient having a concentration of 250 ppm was sprayed by a spray gun. After maintaining the pot in a green-house at 24° to 25° C. for one day, a disc (punched agar disc) obtained by culturing Botrytis cinerea on a potato-glucose-agar medium (PDA medium) was put on the leaf of cucumber to inoculate them. Three days after the inoculation, lengths of lesions were measured and each protective value was calculated as Test 2.
In accordance with the test, except the concentration of the active ingredient was decreased, the comparative tests of Compound No. 7 and Reference compound were carried out.

Plutella xylostella = test: Test 11: mortality of larvae of Plutella xylostella on treated cabbage leaf; assay type: in vivo; settings: foliar, 192 h, leaf dipped, emulsifiable concentrate Composition No. 3, eight days, read-out: Percent mortality
Excerpt: Each emulsifiable concentrate of each active ingredient as Composition No. 3 was dispersed in water at a concentration of 800 ppm. Each leaf of cabbage was dipped into each emulsion for about 10 seconds and taken up and dried in air.
A wet filter paper was put in each Petri dish (diameter of 9 cm), and each treated leaf was put on the filter paper. Larvae of Plutella xylostella at 2nd to 3rd instar were charged and the dish was covered with a cap and kept in a constant temperature chamber with lighting at 28° C. Eight days after the charge, mortality was measured and each percent mortality was calculated.

O=[N+]([O-])c1cc(C(F)(F)F)cc([N+](=O)[O-])c1Nc1ccc(Cl)cn1 [Compound No. 1]
pest or weed control at 100 ppm (Pyricularia orzae): 91%

O=[N+]([O-])c1cc(C(F)(F)F)c(Cl)c([N+](=O)[O-])c1Nc1cc(Cl)cc(Cl)n1 [Compound No. 6]
pest or weed control at 100 ppm (Rhizoctonia solani): 100%

COc1ccc(Nc2c([N+](=O)[O-])cc(C(F)(F)F)cc2[N+](=O)[O-])c(OC)n1 [Compound No. 25]
pest or weed control at 100 ppm (Pyricularia orzae): 85%

O=[N+]([O-])c1cc(C(F)(F)F)c(Cl)c([N+](=O)[O-])c1Nc1ccc(Cl)cn1 [compound 5]
pest or weed control at 100 ppm (Pyricularia orzae): 100%

Cc1nc(Nc2c([N+](=O)[O-])cc(C(F)(F)F)cc2[N+](=O)[O-])c(Cl)c(C)c1Cl [compound 9]
pest or weed control at 100 ppm (Pyricularia orzae): 83%

Cc1cc(Nc2c([N+](=O)[O-])cc(C(F)(F)F)c(Cl)c2[N+](=O)[O-])ncc1Br [compound 10]
pest or weed control at 100 ppm (Pyricularia orzae): 86%

Cc1nc(Nc2c([N+](=O)[O-])cc(C(F)(F)F)c(Cl)c2[N+](=O)[O-])c(Cl)c(C)c1Cl [compound 11]
pest or weed control at 100 ppm (Pyricularia orzae): 84%

Cc1c(Cl)cnc(Nc2c([N+](=O)[O-])cc(C(F)(F)F)cc2[N+](=O)[O-])c1Cl [compound 13]
pest or weed control at 100 ppm (Pyricularia orzae): 92%

O=[N+]([O-])c1cc(C(F)(F)F)c(Cl)c([N+](=O)[O-])c1Nc1ncc(Br)cc1Br [compound 17]
pest or weed control at 100 ppm (Pyricularia orzae): 100% | pest or weed control at 250 ppm (Botrytis cinerea): 92%

O=[N+]([O-])c1cc(C(F)(F)F)c(Cl)c([N+](=O)[O-])c1Nc1ncc(Cl)cc1Br [compound 18]
pest or weed control at 100 ppm (Pyricularia orzae): 100% | pest or weed control at 100 ppm (Rhizoctonia solani): 100% | pest or weed control at 250 ppm (Botrytis cinerea): 100%

O=[N+]([O-])c1cc(C(F)(F)F)c(Cl)c([N+](=O)[O-])c1Nc1ccc(C(F)(F)F)cn1 [compound 19]
pest or weed control at 100 ppm (Pyricularia orzae): 100% | pest or weed control at 100 ppm (Rhizoctonia solani): 100% | pest or weed control at 250 ppm (Botrytis cinerea): 100%

CCc1nc(Nc2c([N+](=O)[O-])cc(C(F)(F)F)c(Cl)c2[N+](=O)[O-])ccc1Br [compound 23]
pest or weed control at 100 ppm (Pyricularia orzae): 93% | pest or weed control at 250 ppm (Botrytis cinerea): 81%

CCc1nc(Nc2c([N+](=O)[O-])cc(C(F)(F)F)cc2[N+](=O)[O-])ccc1Br [compound 24]
pest or weed control at 100 ppm (Pyricularia orzae): 90%

O=[N+]([O-])c1cc(C(F)(F)F)c(Cl)c([N+](=O)[O-])c1Nc1ncc(Br)cc1C(F)(F)F [compound 30]
pest or weed control at 100 ppm (Pyricularia orzae): 100% | pest or weed control at 100 ppm (Rhizoctonia solani): 95% | pest or weed control at 250 ppm (Botrytis cinerea): 100%

O=[N+]([O-])c1cc(C(F)(F)F)c(Cl)c([N+](=O)[O-])c1Nc1nc(Cl)c(C(F)(F)F)cc1Cl [compound 35]
pest or weed control at 100 ppm (Pyricularia orzae): 95% | pest or weed control at 100 ppm (Rhizoctonia solani): 100% | pest or weed control at 250 ppm (Botrytis cinerea): 100%

O=[N+]([O-])c1cc(C(F)(F)F)c(F)c([N+](=O)[O-])c1Nc1ncc(C(F)(F)F)cc1Cl [compound 38]
pest or weed control at 100 ppm (Pyricularia orzae): 100%

CC(C)Oc1c(C(F)(F)F)cc([N+](=O)[O-])c(Nc2ncc(C(F)(F)F)cc2Cl)c1[N+](=O)[O-] [compound 42]
pest or weed control at 100 ppm (Pyricularia orzae): 95% | pest or weed control at 100 ppm (Rhizoctonia solani): 95% | mortality at 800 ppm (Plutella xylostella): 100%

CCCCOc1c(C(F)(F)F)cc([N+](=O)[O-])c(Nc2ncc(C(F)(F)F)cc2Cl)c1[N+](=O)[O-] [compound 43]
pest or weed control at 100 ppm (Pyricularia orzae): 95% | pest or weed control at 100 ppm (Rhizoctonia solani): 95% | mortality at 800 ppm (Plutella xylostella): 100%

CC(C)COc1c(C(F)(F)F)cc([N+](=O)[O-])c(Nc2ncc(C(F)(F)F)cc2Cl)c1[N+](=O)[O-] [compound 44]
pest or weed control at 100 ppm (Pyricularia orzae): 95% | pest or weed control at 100 ppm (Rhizoctonia solani): 95%

CSc1c(C(F)(F)F)cc([N+](=O)[O-])c(Nc2ncc(C(F)(F)F)cc2Cl)c1[N+](=O)[O-] [compound 45]
pest or weed control at 100 ppm (Pyricularia orzae): 100% | pest or weed control at 100 ppm (Rhizoctonia solani): 100%

CCSc1c(C(F)(F)F)cc([N+](=O)[O-])c(Nc2ncc(C(F)(F)F)cc2Cl)c1[N+](=O)[O-] [compound 46]
pest or weed control at 100 ppm (Pyricularia orzae): 95%

O=[N+]([O-])c1cc(C(F)(F)F)c(O)c([N+](=O)[O-])c1Nc1ncc(C(F)(F)F)cc1Cl [compound 47]
pest or weed control at 100 ppm (Pyricularia orzae): 95% | pest or weed control at 100 ppm (Rhizoctonia solani): 95%

O=[N+]([O-])c1cc(C(F)(F)F)c(Oc2ccccc2O)c([N+](=O)[O-])c1Nc1ncc(C(F)(F)F)cc1Cl [compound 48]
pest or weed control at 100 ppm (Rhizoctonia solani): 100% | pest or weed control at 250 ppm (Botrytis cinerea): 100%

O=[N+]([O-])c1cc(C(F)(F)F)c(Oc2cccc(O)c2)c([N+](=O)[O-])c1Nc1ncc(C(F)(F)F)cc1Cl [compound 50]
pest or weed control at 100 ppm (Rhizoctonia solani): 100% | pest or weed control at 250 ppm (Botrytis cinerea): 100%

O=[N+]([O-])c1cc([N+](=O)[O-])c(Nc2ccc(I)cn2)c(C(F)(F)F)c1 [compound 53]
mortality at 800 ppm (Plutella xylostella): 100%

O=[N+]([O-])c1cc([N+](=O)[O-])c(Nc2cccnc2Cl)c(C(F)(F)F)c1 [compound 55]
mortality at 800 ppm (Plutella xylostella): 100%

Cc1ccnc(Nc2c([N+](=O)[O-])cc([N+](=O)[O-])cc2C(F)(F)F)c1 [compound 56]
mortality at 800 ppm (Plutella xylostella): 100%

O=[N+]([O-])c1cc([N+](=O)[O-])c(Nc2ccc(C(F)(F)F)cn2)c(C(F)(F)F)c1 [compound 57]
mortality at 800 ppm (Plutella xylostella): 100%

O=[N+]([O-])c1cc([N+](=O)[O-])c(Nc2cccnc2)c(C(F)(F)F)c1 [compound 58]
mortality at 800 ppm (Plutella xylostella): 100%

O=[N+]([O-])c1cc([N+](=O)[O-])c(Nc2ccncc2)c(C(F)(F)F)c1 [compound 59]
mortality at 800 ppm (Plutella xylostella): 100%

Cc1cnc(Nc2c([N+](=O)[O-])cc([N+](=O)[O-])cc2C(F)(F)F)c(Br)c1 [compound 64]
pest or weed control at 50 ppm (Pyricularia orzae): 100% | pest or weed control at 100 ppm (Rhizoctonia solani): 100% | mortality at 800 ppm (Plutella xylostella): 100%

CCc1nc(Nc2c([N+](=O)[O-])cc([N+](=O)[O-])cc2C(F)(F)F)ccc1I [compound 67]
pest or weed control at 50 ppm (Pyricularia orzae): 100% | mortality at 800 ppm (Plutella xylostella): 100%

Cc1nc(Nc2c([N+](=O)[O-])cc([N+](=O)[O-])cc2C(F)(F)F)c(Cl)cc1Cl [compound 68]
pest or weed control at 50 ppm (Pyricularia orzae): 100% | pest or weed control at 100 ppm (Rhizoctonia solani): 100% | mortality at 800 ppm (Plutella xylostella): 100%

Cc1nc(Nc2c([N+](=O)[O-])cc([N+](=O)[O-])cc2C(F)(F)F)ccc1Cl [compound 69]
pest or weed control at 50 ppm (Pyricularia orzae): 100%

O=[N+]([O-])c1cc([N+](=O)[O-])c(Nc2cc(Cl)cc(Cl)n2)c(C(F)(F)F)c1 [compound 72]
pest or weed control at 100 ppm (Rhizoctonia solani): 100%

Cc1cc(Cl)cc(Nc2c([N+](=O)[O-])cc([N+](=O)[O-])cc2C(F)(F)F)n1 [compound 73]
pest or weed control at 100 ppm (Rhizoctonia solani): 87%

COc1ccc(Nc2c([N+](=O)[O-])cc([N+](=O)[O-])cc2C(F)(F)F)nc1 [compound 74, N-(5-methoxy-2-pyridyl)-2,4-dinitro-6-trifluoromethylaniline]
pest or weed control at 100 ppm (Rhizoctonia solani): 93% | mortality at 800 ppm (Plutella xylostella): 100%

O=[N+]([O-])c1cc([N+](=O)[O-])c(Nc2ccc(Cl)nc2Cl)c(C(F)(F)F)c1 [compound 75]
pest or weed control at 50 ppm (Pyricularia orzae): 100% | pest or weed control at 100 ppm (Rhizoctonia solani): 100%

O=[N+]([O-])c1cc([N+](=O)[O-])c(Nc2nc(Cl)ccc2C(F)(F)F)c(C(F)(F)F)c1 [compound 76]
pest or weed control at 50 ppm (Pyricularia orzae): 100% | pest or weed control at 100 ppm (Rhizoctonia solani): 100%

Cc1c(Cl)cnc(Nc2c([N+](=O)[O-])cc([N+](=O)[O-])cc2C(F)(F)F)c1Cl [compound 78]
pest or weed control at 50 ppm (Pyricularia orzae): 100% | pest or weed control at 100 ppm (Rhizoctonia solani): 100%

O=[N+]([O-])c1cc([N+](=O)[O-])c(Nc2c(Cl)cncc2Cl)c(C(F)(F)F)c1 [compound 79]
pest or weed control at 100 ppm (Rhizoctonia solani): 90%

O=[N+]([O-])c1cc([N+](=O)[O-])c(Nc2ncc(C(F)(F)F)cc2Br)c(C(F)(F)F)c1 [compound 80]
pest or weed control at 50 ppm (Pyricularia orzae): 100% | pest or weed control at 100 ppm (Rhizoctonia solani): 100%

O=[N+]([O-])c1cc([N+](=O)[O-])c(Nc2nc(Cl)c(Br)cc2C(F)(F)F)c(C(F)(F)F)c1 [compound 82]
pest or weed control at 50 ppm (Pyricularia orzae): 100%

O=[N+]([O-])c1cc([N+](=O)[O-])c(Nc2ncc(Cl)cc2C(F)(F)F)c(C(F)(F)F)c1 [compound 83]
pest or weed control at 50 ppm (Pyricularia orzae): 100% | mortality at 800 ppm (Plutella xylostella): 100%

O=[N+]([O-])c1cc([N+](=O)[O-])c(Nc2ncc(Br)cc2C(F)(F)F)c(C(F)(F)F)c1 [compound 84]
pest or weed control at 50 ppm (Pyricularia orzae): 100%

COc1c([N+](=O)[O-])cc(C(F)(F)F)c(Nc2ncc(C(F)(F)F)cc2Cl)c1[N+](=O)[O-] [compound 85, N-(3-chloro-5-trifluoromethyl-2-pyridyl)-2,4-dinitro-3-methoxy-6-trifluoromethylaniline]
pest or weed control at 50 ppm (Pyricularia orzae): 100% | pest or weed control at 100 ppm (Rhizoctonia solani): 100%

COc1c([N+](=O)[O-])cc(C(F)(F)F)c(Nc2ncc(Cl)cc2Cl)c1[N+](=O)[O-] [compound 86]
pest or weed control at 50 ppm (Pyricularia orzae): 100% | pest or weed control at 100 ppm (Rhizoctonia solani): 100%

Cc1cc(Nc2c([N+](=O)[O-])cc([N+](=O)[O-])cc2C(F)(F)F)ncc1Br [compound 87]
pest or weed control at 50 ppm (Pyricularia orzae): 100% | pest or weed control at 100 ppm (Rhizoctonia solani): 100% | mortality at 800 ppm (Plutella xylostella): 100%

O=[N+]([O-])c1cc(C(F)(F)F)cc(C(F)(F)F)c1Nc1ccc(C(F)(F)F)c(Cl)n1 [compound 92]
pest or weed control at 50 ppm (Pyricularia orzae): 100%
